The record followed here is patent US12030897B2, “Pyrrolo[2,1-f][1,2,4]triazine derivatives serving as selective HER2 inhibitors and application thereof” (MEDSHINE DISCOVERY INC., priority 2018, dated 2024).

“And” between values parts separate entries of the source, which are not always exact repeats. Equal entries are not always repeated.

Data set [1] relates to NCI-N87 cell. Description: Cell proliferation inhibitory activity, Cell-Titer-Glo, NCI-N87. As to conditions: Homo sapiens, NCI-N87, 72 h; 3 days incubation. The class given is cell-based, human. The source says:
Experiment object: to detect the inhibitory activity of the tested compound on cell proliferation.
Experimental principle: the luciferase in the Cell-Titer-Glo reagent uses luciferin, oxygen and ATP as reaction substrates to produce oxyluciferin and release energy in the form of light. Since the luciferase reaction requires ATP, the total amount of light produced by the reaction is proportional to the total amount of ATP that reflects cell viability.
Experimental Materials: • cell lines: NCI-N87 cell line (ATCC-CRL-5822); BT-474 cell line (ATCC-HTB-20) • Cell culture medium: RPMI 1640 medium (Invitrogen #22400-105; 10% serum Invitrogen #10090148; L-glutamine 1×, Gibco #25030-081; double antibody Hyclone #SV30010) • CellTiter-Glo® luminescence cell viability detection kit (Promega #G7573) • 384-well cell culture plate (Greiner #781090) • Compound plate (LABCYTE #LP-0200) • CO2 incubator (Thermo #371) • Vi-cell cell counter (Beckman Coulter) • Pipette (Eppendorf) • Pipette (Greiner) • Pipetting gun (Eppendorf) • Multifunctional microplate reader (Envision Reader) • ECHO Liquid-handling workstation (Labcyte-ECHO555)
The cells were inoculated in a 384-well plate with a density of 1000 cells per well and 25 μL per well. The edge wells were not inoculated with cells, and was supplemented with 25 μL of phosphate buffer.
The compound was added to the plate with 9 μL per well.
(2) The compound was diluted with ECHO liquid-handling workstation, and each well of the cell plate was added with 125 nL of compound. Each well of the cell wells of columns 2 and 23 was added with 125 nL of DMSO, and each well of the Media wells of columns 1 and 24 was added with 125 nL of DMSO.
(3) Each well of the cell plate was supplemented with 25 μL of culture medium, and the final volume in each well of the cell plate was 50 μL. The concentration of the compound was 10 μM, which was subjected to 3 fold dilution to obtain 10 concentrations. Each concentration was duplicated in left and right wells, and the final DMSO concentration was 0.25%.
2.3 After adding the compound, it was centrifuged at 1000 rpm for 1 min. The cell plate was placed in a 37° C., 5% CO2 incubator for 3 days.
The cell plate was taken from the incubator and equilibrated at room temperature for 30 min. 25 μL of Cell-Titer-Glo reagent was added to each well, shaken for 1 min to make it thoroughly mixed, and centrifuged at 1000 rpm for 1 min. After 10 min, the plate was read on PerkinElmer Envision, and the […] reading time was set to 0.2 seconds.

Data set [2] deals with human gastric cancer NCI-N87 cell subcutaneous xenograft tumor. Description: In vivo efficacy, NCI-N87 subcutaneous xenograft tumor model. Also on record: species or system BALB/c nude mice. The conditions noted are these: 100 mg/kg. How it is done:
Experiment object: to study the efficacy of the tested compound on human gastric cancer NCI-N87 cell subcutaneous xenograft tumor in the BALB/c nude mouse model.
Experimental animals: female BALB/c nude mice, 6 to 8 weeks old, weight: 18 to 22 grams; Supplier: Shanghai Xipuer-Bikai Laboratory Animal Co., Ltd.
Human gastric cancer NCI-N87 cells were cultured in a monolayer in vitro, and the culture conditions were: RPMI-1640 medium with 10% fetal bovine serum, 100 U/mL penicillin, 100 μg/mL streptomycin and 2 mM glutamine, and 37° C., 5% CO2. Conventional digestion treatment with pancreatin-EDTA for passage was carried out twice a week. When the cell saturation was 80% to 90%, the cells were collected, counted and inoculated.
0.2 mL of (10×10^6) NCI-N87 cells were subcutaneously inoculated into the right back of each nude mouse (PBS:Matrigel=1:1). The grouping and administration were started when the average tumor volume reached 130 mm^3.
The tested compound was prepared as a 10 mg/mL solution, and the solvent was 10% NMP+10% ethylene glycol stearate+80% water.
The experimental index was to investigate whether the tumor growth was inhibited, delayed or cured. Tumor diameter was measured twice a week with a vernier caliper. the calculation formula of tumor volume: V=0.5a×b^2, wherein a and b represented the long and short diameters of the tumor, respectively.
The anti-tumor efficacy of the compound was evaluated by TGI (%) or relative tumor proliferation rate T/C (%). TGI (%) reflected the tumor growth inhibition rate.
relative tumor growth rate T/C (%): calculation formula was as follows: T/C %=TRTV/CRTV (TRTV: RTV of the treatment group; CRTV: RTV of the solvent control group). The relative tumor volume (RTV) was calculated according to the results of the tumor measurement. The calculation equation was RTV=Vt/V0, where V0 was the average tumor volume measured at beginning of the grouping and administration (i.e., d0), and Vt was the average tumor volume at the time of a certain measurement. TRTV and CRTV were obtained from the data on the same day.
Statistical analysis included mean value and standard error (SEM) of the tumor volume of each group at each time point. […] The comparison between two groups was analyzed by T-test, and the comparison between three or more groups was analyzed by one-way ANOVA.

Data set [3] deals with human breast cancer BT-474 cell subcutaneous xenograft tumor. Description: In vivo efficacy, BT-474 subcutaneous xenograft tumor model. Also on record: species or system BALB/c nude mice. As to conditions: BT-474 xenograft, 100 mg/kg. How it is done:
Experiment object: to study the in vivo efficacy of the tested compound in human breast cancer BT-474 cell BALB/c nude mouse subcutaneous xenograft tumor model.
Experimental animals: female BALB/c nude mice, 6 to 8 weeks old, weight: 18 to 22 grams; Supplier Beijing Weitonglihua Laboratory Animal Technology Co., Ltd.
Human breast cancer BT474 cells were cultured in a monolayer in vitro. The culture conditions were: ATCC Hybri-Care Medium with 1.5 g/L sodium bicarbonate, 10% fetal bovine serum, 100 U/mL penicillin and 100 μg/mL streptomycin, and 37° C., 5% CO2 incubator. Conventional digestion treatment with pancreatin-EDTA for passage was carried out twice a week. When the cell saturation was 80% to 90%, and the number reached the requirement, the cells were collected, counted and inoculated.
0.2 mL (1×10^7 cells) of BT474 cells (with matrigel in a volume ratio of 1:1) were subcutaneously inoculated on the right back of each mouse. The grouping and administration were started when the average tumor volume reached about 168 mm^3. (Estrogen tablets were inoculated three days before cell inoculation).
7.3 the Preparation of the Tested Samples, Tumor Measurement, Experimental Index and Statistical Analysis were the Same as in Experimental Example 6.

One may read the IC50 as the concentration that gives 50% inhibition. A word on the T/C: it is the ratio of treated to control. `Cc1cc(Nc2ncnn3ccc(CN4CCC(N)CC4)c23)ccc1Oc1ccn2ncnc2c1` [Example 4] gave an IC50 in data set [1] of 7 nM. Moreover, in data set [2], the “body weight of the mice in the treatment group” value is “decreased slightly”. In data set [2] (day 21), the T/C worked out at 2.92% and the TGI came to 112.13%. In addition, the “Tumor volume (Day 21)” value in data set [2] (day 21, mean ± SEM) is 29 mm^3 and 29 ± 7 mm^3. In data set [3] (day 20), the RTV was 0.20 ± 0.02, the T/C was determined as 2.62% and the TGI came to 112.93%. In addition, the Tumor volume in data set [3] (day 20 (head: Day 21), mean ± SEM) is 33 mm^3 and 33 ± 3 mm^3.
